# In PubChem BioAssay AID1996:
# Details: buffer; pH 7.4; 200.0 µM
row,SMILES,solubility kinetic [µg/mL]
1,CC1CCCCC1NC(=O)C1CC(=O)N(Cc2ccccc2)C1 (stereo not given),> 47.2
2,CC(=O)CSc1ccc(-c2nc3cc(C)c(C)cc3[nH]2)cn1,3.9
3,Fc1ccc(C2c3cccn3CCN2C(=S)Nc2cccc(F)c2)cc1 (stereo not given),5.1
4,Cc1ccc(C(=O)Nc2ccc(NC(=O)c3cccs3)cc2)c(C)c1,< 0.4
5,O=C(Nc1ccc(F)cc1)Nc1sccc1-c1nc2ccccc2s1,1.1
6,O=C(O)C1C2C=CC(C2)C1C(=O)NCCCN1CCCC1=O (stereo not given),44.2
7,Cc1ccccc1C(=O)NCC(=O)Nc1ccccc1C(F)(F)F,> 50.4
8,CC(OC(=O)c1c[nH]c2ccccc12)C(=O)N1CCCC1 (stereo not given),> 42.9
9,CC(C)CNc1c2c(nc3ccccc13)CCC2.Cl,> 41.5
10,Cc1c(Cl)cccc1NC(=O)NCCCN1CCCC1=O,> 46.5
11,CCOC(=O)N1CCN(C(=S)NC(=O)c2cccc(OC)c2)CC1,> 52.7
12,CC(=O)c1sc(NC(=O)Cc2c(F)cccc2Cl)nc1C,8.2
13,COC(=O)c1ccc(C(=O)Nc2nc3cc(N)c(C)cc3s2)cc1,< 0.2
14,COc1cc(OC)c(C(=O)O/N=C(\N)c2ccccn2)cc1OC,> 49.7
15,O=C(Cc1ccc(Cl)cc1Cl)Nc1ccncc1,31
16,Cc1cc(=O)oc2cc(OCCSCCN3CCCCC3)ccc12,> 52.1
17,COc1ccc(Cc2nnc(-c3ccccc3)o2)cc1,> 39.9
18,NS(=O)(=O)c1ccc(NC(=O)c2cccc(Cl)c2)cc1,10
19,Cc1nc2ccc(NS(=O)(=O)c3c(F)cccc3F)cc2s1,> 51.1
20,O=C(Cc1ccc(Cl)cc1)Nc1ncccn1,> 37.2

row,SMILES,solubility kinetic [µg/mL]
1,Cc1cccc(C)c1NC(=O)N1CC=CCC1,> 34.5
2,CCN(CC)c1ccc(CNCCc2ccccc2F)cc1.Cl,> 50.5
3,O=C(CC12CC3CC(CC(Br)(C3)C1)C2)NC1CCCC1,36.4
4,CCOc1ccc(C2=CSC3=NCCN23)cc1,22.9
5,CCCCn1c(=O)c(C(C)=O)c(O)c2ccccc21,26.6
6,CN1CCN(CC(=O)c2ccccc2F)CC1.O=C(O)C(=O)O,42.9
7,Cc1ccc(C(=O)NC(C)C(c2cccs2)N2CCCC2)s1 (stereo not given),> 50.2
8,COc1ccc(C(=O)N[C@H](C(=O)NCCc2ccc3c(c2)OCCO3)C(C)C)cc1,19.7
9,COc1cccc(NC(=O)Nc2cccnc2)c1,> 36.5
10,COc1ccc(CCNC(=O)CCc2ccccc2)cc1OC,> 47
11,C=CCC(=O)N1CCCC(C(=O)c2ccc(Cl)cc2)C1 (stereo not given),42.5
12,CC(C)CN(C(=O)CSc1nncn1C)C1CCS(=O)(=O)C1 (stereo not given),> 52
13,COc1cc(CC(=O)N2CCN(S(=O)(=O)c3ccc(C)cc3)CC2)cc(OC)c1OC,> 67.3
14,O=C(NCCc1ccc(F)cc1)c1cc(=O)c2ccccc2o1,9.4
15,CCOC(=O)c1c(CC(C)C)csc1N,2.1
16,CC(=O)NCCc1nc2ccccc2n1CCOc1cccc(C)c1,> 50.6
17,CCOC(=O)c1ccc(NC(=O)c2cc(C)nc3ccccc23)cc1,< 0.4
18,O=C(Nc1nccs1)c1cccc(NC(=O)C(F)(F)F)c1,38.8
19,Cc1c(Cl)cccc1NC(=O)NCc1cccnc1,> 41.4
20,O=S(=O)(c1c(F)cccc1F)N1CCCC2CCCCC21 (stereo not given),13.3

row,SMILES,solubility kinetic [µg/mL]
1,Nc1ccc(N2CCCCC2)c2nonc12,> 32.7
2,CN(C)CCC#CC1(O)c2ccccc2-c2ccccc21,32.2
3,CCN(CC)C(=S)SCC(=O)Nc1ncc2c(n1)CC(C)(C)CC2=O,2.1
4,Cc1[nH]c2ccc3ccccc3c2c(=O)c1C/C=C/Cl,1.1
5,O=C(COc1cccnc1[N+](=O)[O-])Nc1ccc(Cl)cc1F,4.6
6,COC(=O)[C@H](CC(C)C)NC(=O)Nc1ccc(S(N)(=O)=O)cc1,> 51.5
7,COc1ccc(OCC(O)CNC(=O)c2sccc2Cl)cc1 (stereo not given),46
8,Cc1ccc(NC(=S)N2CCN(S(C)(=O)=O)CC2)cc1C,9.1
9,CCOc1ccccc1NC(=O)C1COc2ccccc2O1 (stereo not given),< 0.6
10,Cc1ccccc1C(=O)NC(=S)Nc1ncccn1,15.6
11,COc1ccc2nc3c(nc2c1)CCCC3,> 32.1
12,Cc1cc(C)cc(Nc2nc3ccccc3c(=O)[nH]2)c1,0.2
13,CCN(CC)CCOCCOc1ccc(Cl)c2ccccc12,32.2
14,O=C(N/N=C/c1cccnc1)c1ccco1,> 32.3
15,COc1ccc(CCNC(=O)CNC(=O)c2ccco2)cc1,> 45.3
16,C=CCOC(=O)c1sc(NC(=O)c2ccc(OC)cc2)nc1C,< 0.4
17,O=[N+]([O-])c1ccccc1S(=O)(=O)N1CCN(c2ccccc2)CC1,7.2
18,Cc1cc(C)cc(NC(=O)c2cccc(N3C(=O)C4C5C=CC(C5)C4C3=O)c2)c1 (stereo not given),< 0.4
19,O=C(COc1ccc2ccc(=O)oc2c1)NC1CCCCC1,> 45.2
20,COc1ccc(C2/C(=C(/O)c3ccc(F)cc3)C(=O)C(=O)N2CCCN2CCOCC2)cc1OC (stereo not given),> 72.7
